{"source": "patent US11447495B2", "about": "“Substituted benzo[f]imidazo[1,5-a][1,4]diazepines as GABA(a) receptor modulators” (priority 2016, dated 2022)", "key": {"[1]": {"system": "α1β3γ2 or α4β3γ2 GABAAR expressing HEK293T cells", "test": "Automated patch clamp with EC20 GABA in HEK293T cells", "format": "cell-based", "settings": "GABA EC20, 3 seconds application"}, "[2]": {"system": "human airway smooth muscle", "test": "Relaxation of acetylcholine contracted human airway smooth muscle strips", "settings": "EC50 acetylcholine, 100 μM compound, 15-60 minutes"}, "IL-17, TNFα, IL-4": {"system": "IL-17, TNFα, IL-4", "test": "Lung cytokine levels by cytometric bead array", "format": "in vivo", "settings": "ova s/c mice", "description": "The change of cytokine expression caused by compounds may be investigated in the lung of Ova S/C mice. Therefore, lungs of treated and non-treated asthmatic mice may be harvested, homogenized and cleared by centrifugation. Cytokines may be identified and quantified with specific antibodies and flow cytometry.\nAnti-inflammatory properties of compounds in respect to cytokine production were investigated after the AHR measurement by harvesting the lungs of treated and non-treated Ova S/C mice (N=10). Whole lungs were homogenized in 200 μL of T-PER® tissue protein extraction reagent (Thermo Fisher Scientific Inc., Rockford, Ill.) containing 1× protease inhibitor cocktail using a hand-held tissue homogenizer. Homogenized lung samples were centrifuged at 10,000 RPM for 5 minutes to pellet cell/tissue debris. Tissue supernatant was collected for cytokine analysis using BD cytometric bead array mouse Th1/Th2/Th17 cytokine kit (BD Biosciences, San Jose, Calif.) following manufacturer's instruction. Data were analyzed using GraphPad Prism 4 (GraphPad Software, San Diego, Calif.) and expressed as mean±SEM. One-way analysis of variance (ANOVA) with Dunnet post hoc test was performed for statistical difference for multiple groups. […] Data represent mean±SEM from 10 mice in each group. *, **, and *** indicate p<0.05, p<0.01, and p<0.001 significance. The ova s/c mice expressed higher levels of IFN-γ, IL-6, and IL-2 but the change was not significant in comparison to normal mice."}}, "data": [{"smiles": "CCOC(=O)c1ncn2c1[C@@H]1CCCN1C(=O)c1cc(O)ccc1-2", "note": "[RJ-02-50, ethyl (S)-7-hydroxy-9-oxo-11,12,13,13a-tetrahydro-9H-benzo[e]imidazo[5,1-c]pyrrolo[1,2-a][1,4]diazepine-1-carboxylate]", "values": [{"measurement": "GABAA receptor subtype selectivity, current response", "setting": "[1]", "result": "positive α4β3γ2-selective GABAA receptor modulator"}]}, {"smiles": "C#Cc1ccc2c(c1)C(c1ccccc1F)=N[C@H](C)c1c(C(=O)O)ncn1-2", "note": "[SH-053-2′F-R-CH3-Acid, (R)-8-ethynyl-6-(2-fluorophenyl)-4-methyl-4H-benzo[f]imidazo[1,5-a][1,4]diazepine-3-carboxylic acid]", "values": [{"measurement": "human airway smooth muscle contractile force", "setting": "[2]", "result": "reduced the constriction of human airway smooth muscle after 15 minutes for a period of at least 60 minutes"}]}, {"smiles": "C[C@H]1N=C(c2ccccc2F)c2cc(Br)ccc2-n2cnc(C(=O)O)c21", "note": "[GL-II-93, (R)-8-bromo-6-(2-fluorophenyl)-4-methyl-4H-benzo[f]imidazo[1,5-a][1,4]diazepine-3-carboxylic acid]", "values": [{"measurement": "level of IL-4 in the mouse lung", "setting": "IL-17, TNFα, IL-4", "result": "reduced the levels of IL-17, TNFα, and IL-4"}, {"measurement": "level of IL-17 in the mouse lung", "setting": "IL-17, TNFα, IL-4", "result": "reduced the levels of IL-17"}, {"measurement": "level of TNFα in the mouse lung", "setting": "IL-17, TNFα, IL-4", "result": "reduced the levels of IL-17, TNFα"}]}]}
